Test system: microorganisms (bacteria, fungi, pseudomonas aeruginosa, pseudomonas capacia, staphylococcus aureus, escherichia coli, candida albicans, aspergillus niger …)
Experiment: Antimicrobial effectiveness of the agent used in the formulation
Settings: salmonella typhimurium
Excerpt: A preferred chemical antimicrobial agent for use under the invention is Triclosan. This agent used in the formulation has been found effective against the whole genera of microorganisms, (for example: bacteria, fungi, pseudomonas aeruginosa, pseudomonas capacia, staphylococcus aureus, escherichia coli, candida albicans, aspergillus niger, salmonella typhimurium, etc . . . ). […] The antimicrobial chemical agent is normally present in an amount of from 0.001-5% by weight, preferably from 0.05-2% by weight, and more preferably from 0.1-1% by weight.

## Oc1cc(Cl)ccc1Oc1ccc(Cl)cc1Cl [Triclosan]
  effectiveness against microorganisms: effective
